From PubChem BioAssay AID330 (DTP/NCI, 2004)
Where “and” joins values, the source holds several entries; their conditions need not be identical. Equal values may be shown once. Inconclusive results and toxic doses are left out.

System: P388 leukemia ip, CD2F1 mice, survival T/C
Experiment: NCI In Vivo Anticancer Drug Screen. Data for tumor model P388 Leukemia (intraperitoneal) in CD2F1 (CDF1) mice
Settings: endpoint: median survival time, higher = longer survival
Procedure, shortened: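 Mice carrying the transplanted tumor received test compound or vehicle. Survival was recorded in each group, and the value is the treated-group measurement divided by that of the vehicle-treated control group.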

[1] = dose: 50.0 mg/kg/injection, schedule: Q01DX009 (ip), vehicle: Klucel (hydroxypropylcellulose) (HPC)
[2] = dose: 100.0 mg/kg/injection, schedule: Q01DX009 (ip), vehicle: Klucel (hydroxypropylcellulose) (HPC)
[3] = dose: 200.0 mg/kg/injection, schedule: Q01DX009 (ip), vehicle: Klucel (hydroxypropylcellulose) (HPC)
[4] = dose: 100.0 mg/kg/injection, schedule: Q01DX005 (ip), vehicle: Klucel (hydroxypropylcellulose) (HPC)
[5] = dose: 1.56 mg/kg/injection, schedule: Q01DX009 (ip), vehicle: water
[6] = dose: 6.25 mg/kg/injection, schedule: Q01DX009 (ip), vehicle: water

C=CCOc1cc2c(cc1C(CC)c1ccc(OCc3ccccc3)cc1)OCO2 (configuration not stated)
T/C (dose: 50.0 mg/kg/injection, schedule: Q01DX005 (ip), vehicle: saline with Tween-80): 102 % of control
T/C (dose: 100.0 mg/kg/injection, schedule: Q01DX005 (ip), vehicle: saline with Tween-80): 100 % of control
T/C (dose: 200.0 mg/kg/injection, schedule: Q01DX005 (ip), vehicle: saline with Tween-80): 95 % of control

COc1cc2c(cc1OC)C(c1ccc(S(=O)(=O)C(C)C)cc1)NCC2 (configuration not stated)
T/C [1]: 89 % of control
T/C [2]: 101 % of control
T/C [3]: 108 % of control

O=S(=O)(O)CC(O)CN1CCN(CCO)CC1 (configuration not stated)
T/C (dose: 60.0 mg/kg/injection, schedule: Q01DX005 (ip), vehicle: saline): 100 % of control
T/C (dose: 120.0 mg/kg/injection, schedule: Q01DX005 (ip), vehicle: saline): 100 % of control
T/C (dose: 240.0 mg/kg/injection, schedule: Q01DX005 (ip), vehicle: saline): 98 % of control

Cc1ccc(NC(=S)NNC(=S)NNc2ccccc2)cc1C
T/C [4]: 95 % of control
T/C (dose: 200.0 mg/kg/injection, schedule: Q01DX005 (ip), vehicle: Klucel (hydroxypropylcellulose) (HPC)): 101 % of control
T/C (dose: 400.0 mg/kg/injection, schedule: Q01DX005 (ip), vehicle: Klucel (hydroxypropylcellulose) (HPC)): 106 % of control

COc1cc2c(cc1OC)-c1c(oc3c(CCC(C)C)c(O)ccc3c1=O)CO2
T/C (dose: 6.25 mg/kg/injection, schedule: Q01DX005 (ip), vehicle: Klucel (hydroxypropylcellulose) (HPC)): 99 % of control
T/C (dose: 12.5 mg/kg/injection, schedule: Q01DX005 (ip), vehicle: Klucel (hydroxypropylcellulose) (HPC)): 92 % of control and 94 % of control
T/C (dose: 25.0 mg/kg/injection, schedule: Q01DX005 (ip), vehicle: Klucel (hydroxypropylcellulose) (HPC)): 88 % of control and 94 % of control
T/C (dose: 50.0 mg/kg/injection, schedule: Q01DX005 (ip), vehicle: Klucel (hydroxypropylcellulose) (HPC)): 86 % of control
T/C [4]: 86 % of control

NC(=O)CC(N)C(=O)O.[Cl-].[Cl-].[Cl-].[Cl-].[Pt+2] (configuration not stated)
T/C [5]: 99 % of control
T/C (dose: 3.13 mg/kg/injection, schedule: Q01DX009 (ip), vehicle: water): 100 % of control
T/C [6]: 100 % of control

COc1cc2c(c(OC)c1OC)-c1ccc(SC)c(=O)cc1C(NC(=O)COP(=O)(O)OCC(=O)NC1CCc3cc(OC)c(OC)c(OC)c3-c3ccc(SC)c(=O)cc31)CC2 (configuration not stated)
T/C (dose: 0.78 mg/kg/injection, schedule: Q01DX009 (ip), vehicle: water): 121 % of control
T/C [5]: 114 % of control
T/C [6]: 150 % of control

CCO/C=N/c1c(C#N)cnn1C
T/C [1]: 100 % of control
T/C [2]: 98 % of control
T/C [3]: 106 % of control
T/C (dose: 400.0 mg/kg/injection, schedule: Q01DX009 (ip), vehicle: Klucel (hydroxypropylcellulose) (HPC)): 103 % of control

CCCCCc1cc(O)c2c(c1)OC(C)(CCC=C(C)C)C=C2 (configuration not stated)
T/C (dose: 6.25 mg/kg/injection, schedule: Q01DX009 (ip), vehicle: saline with Tween-80): 100 % of control
T/C (dose: 12.5 mg/kg/injection, schedule: Q01DX009 (ip), vehicle: saline with Tween-80): 110 % of control
T/C (dose: 25.0 mg/kg/injection, schedule: Q01DX009 (ip), vehicle: saline with Tween-80): 109 % of control
T/C (dose: 50.0 mg/kg/injection, schedule: Q01DX009 (ip), vehicle: saline with Tween-80): 112 % of control

Cc1ccc(-c2n[nH]c(=O)c(C#N)c2-c2ccc(C)cc2)cc1
T/C (dose: 100.0 mg/kg/injection, schedule: Q04DX002 (ip), vehicle: saline with Tween-80): 88 % of control
T/C (dose: 400.0 mg/kg/injection, schedule: Q04DX002 (ip), vehicle: saline with Tween-80): 88 % of control

Cc1ccc(NC(=O)/C(Cl)=C2/Sc3ccccc3NC2=O)cc1
T/C (dose: 60.0 mg/kg/injection, schedule: Q01DX005 (ip), vehicle: saline with Tween-80): 96 % of control
T/C (dose: 120.0 mg/kg/injection, schedule: Q01DX005 (ip), vehicle: saline with Tween-80): 100 % of control
T/C (dose: 240.0 mg/kg/injection, schedule: Q01DX005 (ip), vehicle: saline with Tween-80): 95 % of control

O=C(Cc1nc2ccccc2n2nnnc12)NCCO
T/C (dose: 100.0 mg/kg/injection, schedule: Q04DX002 (ip), vehicle: Klucel + Tween-80): 99 % of control
T/C (dose: 200.0 mg/kg/injection, schedule: Q04DX002 (ip), vehicle: Klucel + Tween-80): 88 % of control
T/C (dose: 400.0 mg/kg/injection, schedule: Q04DX002 (ip), vehicle: Klucel + Tween-80): 92 % of control

COC1=C(C)C(=O)C2=C(C1=O)C1C3CC4=C(C(=O)C(OC)=C(C)C4=O)C(CNC(=O)C(C)=O)N3C(C#N)C(C2)N1C (configuration not stated)
T/C (dose: 0.06 mg/kg/injection, schedule: Q01DX009 (ip), vehicle: Klucel (hydroxypropylcellulose) (HPC)): 122 % of control
T/C (dose: 0.31 mg/kg/injection, schedule: Q01DX009 (sc), vehicle: Klucel (hydroxypropylcellulose) (HPC)): 107 % of control
T/C (dose: 0.62 mg/kg/injection, schedule: Q01DX009 (ip), vehicle: Klucel (hydroxypropylcellulose) (HPC)): 160 % of control
T/C (dose: 0.62 mg/kg/injection, schedule: Q01DX009 (sc), vehicle: Klucel (hydroxypropylcellulose) (HPC)): 115 % of control
T/C (dose: 1.0 mg/kg/injection, schedule: Q01DX009 (ip), vehicle: saline): 156 % of control
T/C (dose: 1.25 mg/kg/injection, schedule: Q01DX009 (ip), vehicle: Klucel (hydroxypropylcellulose) (HPC)): 107 % of control
T/C (dose: 1.25 mg/kg/injection, schedule: Q01DX009 (sc), vehicle: Klucel (hydroxypropylcellulose) (HPC)): 118 % of control
T/C (dose: 2.0 mg/kg/injection, schedule: Q01DX009 (ip), vehicle: saline): 87 % of control
